Converted amounts (≈) assume the structure as drawn. The source made the active and inactive calls. The calls are words filed in the database; no cut-off is given here.

In data set [1] the test system is Mycobacterium tuberculosis. The data set is described as follows: Antituberculosis activity against Mycobacterium tuberculosis H37Rv ATCC 27294 assessed as inhibition of bacterial replication after 6 days by luminometry analysis. The data set is classed as functional, organism-based. The settings on record: H37Rv ATCC 27294, 144 h.
Data set [2] is described as follows: Cytotoxicity against mouse J774A1 cells after 24 hrs by neutral red uptake assay. The settings on record: J774.A1, 24 h. The data set is classed as cell-based.
A short description of data set [3]: Antituberculosis activity against Mycobacterium avium ssp. avium ATCC 15769 expressing lux gene assessed as inhibition of bacterial replication after 6 days by luminometry analysis. The data set is classed as functional, Mycobacterium avium subsp. avium.
Data set [4] has as its system Mycobacterium tuberculosis. The data set is described as follows: Antituberculosis activity against Mycobacterium tuberculosis H37Rv expressing lux gene infected in mouse J774A1 cells assessed as inhibition of bacterial replication at 3.13 ug/ml after 4 days by luminometry analysis. The data set is classed as functional. The following applies: J774.A1, 96 h.
The nature of data set [5]: Genotoxicity in mouse J774A1 cells assessed as ratio of genomic DNA present in tail and head at 0.1 to 10 ug/ml after 24 hrs by comet assay. The data set is classed as toxicity, cell-based. The settings on record: j774.a1, 24 h.
For data set [6], the system named is Mycobacterium avium subsp. paratuberculosis. As to the kind of experiment: Antituberculosis activity against Mycobacterium avium ssp. paratuberculosis ATCC 19698 expressing lux gene assessed as inhibition of bacterial replication after 6 days by luminometry analysis. The data set is classed as functional, organism-based. The following applies: ATCC 19698, 144 h.

Data set [7] concerns Mycobacterium tuberculosis. The data set is described as follows: Antituberculosis activity against Mycobacterium tuberculosis H37Rv ATCC 27294 assessed as inhibition of bacterial replication at < 10 ug/ml after 6 days by luminometry analysis relative to control. The data set is classed as functional.
In data set [8] the test system is Mycobacterium tuberculosis. The data set is described as follows: Antituberculosis activity against Mycobacterium tuberculosis H37Rv expressing lux gene infected in mouse J774A1 cells assessed as inhibition of bacterial replication at 1.56 ug/ml after 4 days by luminometry analysis. The data set is classed as functional. The following applies: J774.A1, 96 h.
Data set [9] relates to Mycobacterium ulcerans. As to the kind of experiment: Antituberculosis activity against Mycobacterium ulcerans 1615 expressing lux gene assessed as inhibition of bacterial replication after 6 days by luminometry analysis. The data set is classed as functional. The following applies: Mycobacterium ulcerans, 1615, 144 h.
A short description of data set [10]: Selectivity index, ratio of IC50 for mouse J774A1 cells to IC50 for Mycobacterium tuberculosis H37Rv expressing pSMT1. The following applies: read-out: Ratio IC50. The data set is classed as toxicity, cell-based, J774.A1.
Data set [11] has as its system Mycobacterium tuberculosis. The data set is described as follows: Antituberculosis activity against Mycobacterium tuberculosis H37Rv expressing lux gene assessed as inhibition of bacterial replication after 6 days by luminometry analysis. The data set is classed as functional, organism-based. The settings on record: 144 h.
For data set [12], the system named is Mycobacterium tuberculosis. The data set is described as follows: Antituberculosis activity against Mycobacterium tuberculosis H37Rv expressing lux gene infected in mouse J774A1 cells assessed as inhibition of bacterial replication at 0.78 to 6.25 ug/ml after 4 days by luminometry analysis. The data set is classed as functional, organism-based. The settings on record: J774.A1.

Data set [13] deals with Mycobacterium tuberculosis. The data set is described as follows: Antituberculosis activity against Mycobacterium tuberculosis H37Rv expressing lux gene infected in mouse J774A1 cells assessed as inhibition of bacterial replication at 12.5 ug/ml after 4 days by luminometry analysis. The data set is classed as functional. The following applies: J774.A1, 96 h.

Usually IC50 stands for the midpoint of a concentration-inhibition curve. For orientation: IC90 means the concentration needed for an effect of 90%. In general, IC99 refers to the concentration needed for an effect of 99%. Consider `O=C(/N=N/c1ccc(Cl)cc1)Nc1ccccc1`, for which, in [1], the IC50 is 15.6 µg/mL (≈ 59.9 µM), the IC90 was determined as 41.4 µg/mL (≈ 159 µM) and the 99% effect concentration (IC99) amounted to 49.3 µg/mL.

In the case of `O=C(/N=N/C(=O)Nc1ccc(F)cc1F)NCc1cccnc1`, in data set [1], the IC50 amounted to 38.6 µg/mL (≈ 121 µM), the IC90 was above 50 µg/mL and the IC99 is above 50 µg/mL.

Turning to `COc1ccc(/N=N/C(=O)Nc2ccccc2)cc1`, in data set [1], the IC50 was 12.1 µg/mL (≈ 47.3 µM), the 90% effect concentration (IC90) is 38.4 µg/mL (≈ 150 µM) and the IC99 is 42.2 µg/mL.

One may read the inhibition as the percentage by which the read-out fell short of the control. For the compound `O=C(/N=N/c1ccc(C(F)(F)F)cc1)Nc1ccccc1`, the 50% inhibitory concentration (IC50) stood at 0.24 µg/mL (≈ 0.818 µM) in [1]; 7.41 µg/mL (≈ 25.3 µM) in [2]; 1.03 µg/mL (≈ 3.51 µM) in data set [3]; 0.98 µg/mL (≈ 3.34 µM) in data set [6]; 3.78 µg/mL (≈ 12.9 µM) in data set [9]; 0.24 µg/mL (≈ 0.818 µM) in [11]. In data set [1], the IC90 amounted to 5.29 µg/mL (≈ 18 µM). Also, the 99% effect concentration (IC99) in data set [1] was found to be 6.24 µg/mL. Also, in data set [4], the inhibition at 3.13 µg/mL was found to be 74.4%. Further, the Activity result in [5] is reported as “Non-toxic”. For the same compound, in [7], the “fold change (FC)” value is 10. Moreover, the inhibition at 1.56 µg/mL in data set [8] was 31.7%. In addition, in data set [10], the selectivity ratio is 30.2.

Turning to `O=C(/N=N/c1ccc([N+](=O)[O-])cc1)Nc1ccccc1`, the 50% inhibitory concentration (IC50) in data set [1] was determined as 2.75 µg/mL (≈ 10.2 µM); in data set [2] it was 14.4 µg/mL (≈ 53.2 µM); in [3] it was 2.98 µg/mL (≈ 11 µM); in data set [6], 3.56 µg/mL (≈ 13.2 µM); in data set [9] it was 5.67 µg/mL (≈ 21 µM); in [11], 2.75 µg/mL (≈ 10.2 µM). Further, the 90% effect concentration (IC90) in data set [1] worked out at 6.23 µg/mL (≈ 23.1 µM). Also, in [1], the concentration for an effect of 99% (IC99) was determined as 16.5 µg/mL. The inhibition entry in data set [12] was “inactive”. The Activity result in [5] is reported as “Non-toxic”. For the same compound, in data set [7], the “fold change (FC)” value worked out at 10. In [10], the selectivity ratio was 5.23.

Turning to `O=C(/N=N/C(=O)Nc1ccc(F)cc1F)NCc1ccncc1`, in data set [1], the IC50 is 33.3 µg/mL (≈ 104 µM), the IC90 is above 50 µg/mL and the IC99 is above 50 µg/mL.

Take `O=C(/N=N/c1nccc(C(F)(F)F)n1)Nc1ccccc1`: in data set [1], the half-maximal inhibitory concentration (IC50) is above 50 µg/mL, the 90% effect concentration (IC90) was above 50 µg/mL and the IC99 is above 50 µg/mL.

With `O=C(/N=N/c1ccccn1)Nc1ccccc1`, in data set [1], the IC50 stood at 27.1 µg/mL (≈ 120 µM), the 90% effect concentration (IC90) was determined as 46.9 µg/mL (≈ 207 µM) and the IC99 is above 50 µg/mL.

For `O=C(/N=N/c1ccc(F)cc1)Nc1ccccc1`, in [1], the IC50 worked out at 45.2 µg/mL (≈ 186 µM), the IC90 was 49.2 µg/mL (≈ 202 µM) and the concentration for an effect of 99% (IC99) is above 50 µg/mL.

`NNC(=O)c1ccncc1` [ISONIAZID]: in data set [1], the concentration for half-maximal inhibition (IC50) turned out to be 0.04 µg/mL (≈ 0.292 µM), the 90% effect concentration (IC90) stood at 0.11 µg/mL (≈ 0.802 µM) and the IC99 turned out to be 0.13 µg/mL.

Regarding `CCOC(=O)/N=N/C(=O)Nc1ccc(C)cc1`, the IC50 was determined as 2.72 µg/mL (≈ 11.6 µM) in [1]; 20.8 µg/mL (≈ 88.2 µM) in data set [2]; 3.14 µg/mL (≈ 13.3 µM) in data set [3]; 4.89 µg/mL (≈ 20.8 µM) in data set [6]; 7.25 µg/mL (≈ 30.8 µM) in data set [9]; 2.72 µg/mL (≈ 11.6 µM) in [11]. Moreover, the IC90 in [1] stood at 4.07 µg/mL (≈ 17.3 µM). In addition, the IC99 in [1] stood at 7.97 µg/mL. The inhibition at 12.5 µg/mL in [13] came out at 40.3%. Also, in data set [5], the Activity entry was “Non-toxic”. Further, the “fold change (FC)” value in data set [7] is 10. Moreover, the selectivity ratio in data set [10] was 7.63.

Regarding `O=C(/N=N/c1c(F)c(F)c(F)c(F)c1F)Nc1ccccc1`, in data set [1], the IC50 was found to be 24.3 µg/mL (≈ 77.1 µM), the IC90 stood at 45.3 µg/mL (≈ 144 µM) and the IC99 was above 50 µg/mL.

For `CCOC(=O)/N=N/C(=O)Nc1ccccc1`, in data set [1], the IC50 turned out to be 17.2 µg/mL (≈ 77.8 µM), the concentration for an effect of 90% (IC90) was found to be 33.8 µg/mL (≈ 153 µM) and the IC99 was above 50 µg/mL.

On to `O=C(/N=N/C(=O)Nc1ccc(F)cc1)NCc1ccncc1`, for which, in data set [1], the IC50 was above 50 µg/mL, the IC90 was above 50 µg/mL and the IC99 is above 50 µg/mL.

Take `COC(=O)/N=N/C(=O)Nc1ccc(OC)cc1`: in data set [1], the half-inhibitory concentration (IC50) turned out to be 14.3 µg/mL (≈ 60.4 µM), the 90% effect concentration (IC90) is 32.4 µg/mL (≈ 137 µM) and the IC99 is above 50 µg/mL.

On to `O=C(/N=N/C(=O)Nc1ccc(F)cc1)NCc1cccnc1`, for which, in data set [1], the IC50 is above 50 µg/mL, the IC90 was above 50 µg/mL and the concentration for an effect of 99% (IC99) is above 50 µg/mL.

Source of the values: ChEMBL document CHEMBL3112428, “Biological evaluation of diazene derivatives as anti-tubercular compounds” (Eur J Med Chem, 2014).
